Target: T1, Transglutaminase 2 (Cavia cutleri, UniProt P08587)
T1 construct: purchased Sigma-Aldrich T5398
T1 sequence (P08587 1-690): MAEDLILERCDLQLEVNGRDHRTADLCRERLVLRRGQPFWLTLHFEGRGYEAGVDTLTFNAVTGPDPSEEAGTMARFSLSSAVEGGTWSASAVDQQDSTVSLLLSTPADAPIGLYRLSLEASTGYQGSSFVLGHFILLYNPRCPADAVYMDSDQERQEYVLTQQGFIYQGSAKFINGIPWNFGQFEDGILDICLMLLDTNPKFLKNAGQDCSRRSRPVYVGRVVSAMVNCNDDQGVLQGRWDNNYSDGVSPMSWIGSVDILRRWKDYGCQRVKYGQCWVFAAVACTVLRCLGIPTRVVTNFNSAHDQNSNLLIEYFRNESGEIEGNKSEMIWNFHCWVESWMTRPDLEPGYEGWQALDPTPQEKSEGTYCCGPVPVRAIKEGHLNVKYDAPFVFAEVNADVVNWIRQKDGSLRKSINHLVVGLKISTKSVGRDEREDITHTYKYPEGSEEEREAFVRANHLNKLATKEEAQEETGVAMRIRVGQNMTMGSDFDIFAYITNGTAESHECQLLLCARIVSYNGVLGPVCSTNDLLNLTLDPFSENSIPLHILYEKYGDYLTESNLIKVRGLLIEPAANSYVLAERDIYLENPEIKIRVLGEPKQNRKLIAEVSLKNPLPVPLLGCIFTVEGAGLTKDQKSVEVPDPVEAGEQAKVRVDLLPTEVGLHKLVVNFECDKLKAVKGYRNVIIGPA
Assay: In vitro assay for inhibition of transglutaminase activity ([1,4-14C] putrescine incorporation into succinylated casein)
Format: biochemical
Details: for activity of transglutaminase relative to DMSO-control, Assay 1 / activity of transglutaminase relative to DMSO-control, Assay 2 / activity of transglutaminase relative to DMSO-control, Assay 3 / activity of transglutaminase relative to DMSO-control, Mean: control = 1.0000; for activity of transglutaminase relative to DMSO-control, Mean: mean of three assays
Method: To measure the inhibitory activity of chlorogenic acid which competes with putrescine, the transglutaminase-catalyzed reaction between [1,4,-^14C] putrescine and succinylated casein were observed.
Succinylated casein was purchased from Calbiochem (Cat. No. 573464), and 1 g of the powder was dissolved in 50 ml of a reaction buffer solution containing 5 mM DTT (0.1 M Tris-acetate (pH 8.0), 10 mM CaCl, 0.15 M NaCl, 1.0 mM EDTA). This solution was stored in a deep freezer for further use. [1,4-^14C] Putrescine dihydrochloride was purchased from GE Healthcare (Cat. No. CFA301), and the stock solution was diluted with distilled water to yield a radiological dose of 5 μCi/ml. Transglutaminase 2 was purchased from Sigma-Aldrich (Cat. No. T5398), and diluted with distilled water to yield a final concentration of 1 unit/ml. Chlorogenic acid (Sigma-Aldrich, Cat No. C3878) was dissolved in DMSO at a concentration of 10 mM to prepare its stock solution, and the stock solution was diluted with DMSO to prepare solutions having various concentrations.
450 μl of succinylated casein solution and 50 μl of [1,4-^14C] putrescine dihydrochloride solution were mixed together to prepare a substrate solution. 96 μl of the reaction buffer, 3 μl of the stock solution of chlorogenic acid, and 1 μl of the stock solution of transglutaminase were mixed together to prepare each sample, followed by incubation at 37° C. for 10 min. 500 μl of the substrate solution and 100 μl of sample solution were mixed well, and the mixture was incubated at 37° C. for 2 hrs, before termination with 4.5 ml of cold (4° C.) 7.5% TCA. The final solution was stored at 4° C. for 1 hr. The TCA-precipitates were filtered through a GF/glass fiber filter, washed with 25 ml of cold 5% TCA, and dried. Radioactivity of crosslinked protein was measured using a β-counter (Beckman Coulter), and compensated by the activity of DMSO-control group as a standard. The activity of transglutaminase was represented by the measured values.

O=C(/C=C/c1ccc(O)c(O)c1)O[C@@H]1C[C@](O)(C(=O)O)C[C@@H](O)[C@H]1O [chlorogenic acid, 3-[[3-(3,4-dihydroxyphenyl)-1-oxo-2-propenyl]oxy]-1,4,5-trihydroxycyclohexanecarboxylic acid]
activity of transglutaminase relative to DMSO-control, Assay 1 (0.5 μM chlorogenic acid): 0.9450
activity of transglutaminase relative to DMSO-control, Assay 2 (0.5 μM chlorogenic acid): 0.8658
activity of transglutaminase relative to DMSO-control, Assay 3 (0.5 μM chlorogenic acid): 0.9028
activity of transglutaminase relative to DMSO-control, Mean (0.5 μM chlorogenic acid): 0.9045
activity of transglutaminase relative to DMSO-control, Assay 1 (1.0 μM chlorogenic acid): 0.8294
activity of transglutaminase relative to DMSO-control, Assay 2 (1.0 μM chlorogenic acid): 0.7454
activity of transglutaminase relative to DMSO-control, Assay 3 (1.0 μM chlorogenic acid): 0.5411
activity of transglutaminase relative to DMSO-control, Mean (1.0 μM chlorogenic acid): 0.7053
activity of transglutaminase relative to DMSO-control, Assay 1 (2.0 μM chlorogenic acid): 0.4526
activity of transglutaminase relative to DMSO-control, Assay 2 (2.0 μM chlorogenic acid): 0.5111
activity of transglutaminase relative to DMSO-control, Assay 3 (2.0 μM chlorogenic acid): 0.3081
activity of transglutaminase relative to DMSO-control, Mean (2.0 μM chlorogenic acid): 0.4240
activity of transglutaminase relative to DMSO-control, Assay 1 (3.0 μM chlorogenic acid): 0.2041
activity of transglutaminase relative to DMSO-control, Assay 2 (3.0 μM chlorogenic acid): 0.1523
activity of transglutaminase relative to DMSO-control, Assay 3 (3.0 μM chlorogenic acid): 0.1209
activity of transglutaminase relative to DMSO-control, Mean (3.0 μM chlorogenic acid): 0.1591
activity of transglutaminase relative to DMSO-control, Assay 1 (5.0 μM chlorogenic acid): 0.1094
activity of transglutaminase relative to DMSO-control, Assay 2 (5.0 μM chlorogenic acid): 0.1009
activity of transglutaminase relative to DMSO-control, Assay 3 (5.0 μM chlorogenic acid): 0.0797
activity of transglutaminase relative to DMSO-control, Mean (5.0 μM chlorogenic acid): 0.0966
activity of transglutaminase relative to DMSO-control, Assay 1 (10.0 μM chlorogenic acid): 0.0713
activity of transglutaminase relative to DMSO-control, Assay 2 (10.0 μM chlorogenic acid): 0.0876
activity of transglutaminase relative to DMSO-control, Assay 3 (10.0 μM chlorogenic acid): 0.0754
activity of transglutaminase relative to DMSO-control, Mean (10.0 μM chlorogenic acid): 0.0781
activity of transglutaminase relative to DMSO-control, Assay 1 (50.0 μM chlorogenic acid): 0.0711
activity of transglutaminase relative to DMSO-control, Assay 2 (50.0 μM chlorogenic acid): 0.0808
activity of transglutaminase relative to DMSO-control, Assay 3 (50.0 μM chlorogenic acid): 0.0703
activity of transglutaminase relative to DMSO-control, Mean (50.0 μM chlorogenic acid): 0.0741
IC50 (calculated by nonlinear regression from mean values): 1490 nM
inhibition of the activity of transglutaminase (FIG. 1) (relative inhibition activities versus concentration): inhibited in a chlorogenic acid concentration-dependent manner

From patent publication US20100173990A1, “Transglutaminase Inhibitor Comprising Chlorogenic Acid And A Method For Producing Thereof” (priority 2007, published 2010)
